Values of other authors as cited in US20060009656A1, “METHOD OF PRODUCING BETAINE COMPOUND” (priority 2004, published 2006).
Counter-ions that a name gives are not always drawn.

Conditions: as methyl supplier in feed

SMILES: C[N+](C)(C)CC(=O)O [Betaine anhydrous, 2-(Trimethylammonio) ethanoic acid, hydroxide, inner salt]
- effective value of organism relative to 50% choline chloride (relative to 50% choline chloride): 1.8 times
- effective value of organism relative to DL-methionine (relative to DL-methionine): 3 times
